Here are results for 13 molecules from patent US20060276464A1, “Diarylsulfone sulfonamides and use thereof” (Wyeth, priority 2005, published 2006).

Read-outs that look alike come from different tables or passages of the source.

The target of this assay is T1, SFRP-1 (Homo sapiens, UniProt Q8N474).
T1 sequence (Q8N474 32-314): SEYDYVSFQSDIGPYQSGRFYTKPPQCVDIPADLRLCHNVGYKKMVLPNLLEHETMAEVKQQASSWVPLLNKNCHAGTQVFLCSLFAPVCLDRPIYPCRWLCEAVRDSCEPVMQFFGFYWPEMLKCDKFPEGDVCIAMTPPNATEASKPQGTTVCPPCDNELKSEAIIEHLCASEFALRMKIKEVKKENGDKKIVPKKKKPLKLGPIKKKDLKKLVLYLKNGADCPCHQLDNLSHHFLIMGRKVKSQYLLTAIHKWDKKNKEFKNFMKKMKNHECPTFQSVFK
The assay can be described thus: Cell-based assay for in vitro measurement of SFRP-1/SARP2 antagonist activity (U2OS cells co-transfected with 16x TCF-tk-Luciferase reporter, Wnt and hSFRP-1).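 Further: U2OS cells co-transfected with a TCF-tk luciferase reporter, a Wnt vector, hSFRP-1 or empty vector and CMV-βgal, luciferase luminescence read in cell lysates alongside βgal activity.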 The settings on record: U2OS. (In general: In a reporter assay the amount or activity of a reporter protein is the signal.)

Where [1] appears, read: read-out: Fold Induction with SFRP-1, Conc 15 μM, with SFRP-1, fold induction over SFRP-1 control, single dose.
[2] abbreviates: read-out: Fold Induction without SFRP-1, Conc 15 μM, without SFRP-1, single dose.

As to `Cc1ccc(S(=O)(=O)c2cc(F)cc(F)c2)cc1S(=O)(=O)NCCc1ccccn1` [Example 417, 5-[(3,5-difluorophenyl)sulfonyl]-2-methyl-N-(2-pyridin-2-ylethyl)benzenesulfonamide], the fold induction at 15 µM runs as follows: under setting [1], 1.8; under setting [2], 1.
The matching figures for `CC(=O)c1cccc(S(=O)(=O)c2ccc(C)c(S(=O)(=O)NCCc3ccccn3)c2)c1` [Example 419, 5-[(3-acetylphenyl)sulfonyl]-2-methyl-N-(2-pyridin-2-ylethyl)benzenesulfonamide]: 2.5 and 1.3.
The matching figures for `Cc1ccc(S(=O)(=O)c2ccccc2)cc1S(=O)(=O)NC1CC1` [Example 424, N-cyclopropyl-2-methyl-5-(phenylsulfonyl)benzenesulfonamide]: 2.1 and 1.2.
Consider `Cc1ccc(S(=O)(=O)c2cccnc2)cc1S(=O)(=O)NCCc1ccccn1` [Example 426, 2-methyl-N-(2-pyridin-2-ylethyl)-5-(pyridin-3-ylsulfonyl)benzenesulfonamide], for which the fold induction at 15 µM under setting [1] worked out at 1.3 and the fold induction at 15 µM under setting [2] turned out to be 0.8.
The matching figures for `Cc1ccc(S(=O)(=O)c2ccc(C#N)cc2)cc1S(=O)(=O)NCCc1ccccn1` [Example 428, 5-[(4-cyanophenyl)sulfonyl]-2-methyl-N-(2-pyridin-2-ylethyl)benzenesulfonamide]: 1.3 and 0.8.
Turning to `CCS(=O)(=O)c1cccc(S(=O)(=O)c2ccc(C)c(S(=O)(=O)NCCc3ccccn3)c2)c1` [Example 429, 5-{[3-(ethylsulfonyl)phenyl]sulfonyl}-2-methyl-N-(2-pyridin-2-ylethyl)benzenesulfonamide], the fold induction at 15 µM came out at 0.9 under setting [1] and 0.8 under setting [2].
The matching figures for `Cc1ccc(S(=O)(=O)c2ccccc2C)cc1S(=O)(=O)NCCc1ccccn1` [Example 430, 2-methyl-5-[(2-methylphenyl)sulfonyl]-N-(2-pyridin-2-ylethyl)benzenesulfonamide]: 1.7 and 0.8.
On to `CCc1ccccc1S(=O)(=O)c1ccc(C)c(S(=O)(=O)NCCc2ccccn2)c1` [Example 431, 5-[(2-ethylphenyl)sulfonyl]-2-methyl-N-(2-pyridin-2-ylethyl)benzenesulfonamide], for which the fold induction at 15 µM is, setting by setting: under setting [1], 1.7; under setting [2], 0.8.
The like results for `Cc1ccc(S(=O)(=O)c2ccccc2-c2ccccc2)cc1S(=O)(=O)NCCc1ccccn1` [Example 432, 5-(biphenyl-2-ylsulfonyl)-2-methyl-N-(2-pyridin-2-ylethyl)benzenesulfonamide] were, in that order, 1.9 and 0.9.
The matching figures for `Cc1ccc(S(=O)(=O)c2ccc(-c3ccccc3)cc2)cc1S(=O)(=O)NCCc1ccccn1` [Example 433, 5-(biphenyl-4-ylsulfonyl)-2-methyl-N-(2-pyridin-2-ylethyl)benzenesulfonamide]: 2.5 and 1.1.
The like results for `Cc1ccc(S(=O)(=O)c2cccc(-c3ccccc3)c2)cc1S(=O)(=O)NCCc1ccccn1` [Example 434, 5-(biphenyl-3-ylsulfonyl)-2-methyl-N-(2-pyridin-2-ylethyl)benzenesulfonamide] were, in that order, 2.1 and 1.1.
For `Cc1ccc(S(=O)(=O)c2ccc(C(C)(C)C)cc2)cc1S(=O)(=O)NCCc1ccccn1` [Example 438, 5-[(4-tert-butylphenyl)sulfonyl]-2-methyl-N-(2-pyridin-2-ylethyl)benzenesulfonamide], the fold induction at 15 µM reads like this: under setting [1], 1.6; under setting [2], 1.
The like results for `CC(C)c1ccc(S(=O)(=O)c2ccc(F)cc2)cc1S(=O)(=O)NC[C@@H](C)c1ccccc1` [Example 444, 5-[(4-fluorophenyl)sulfonyl]-2-isopropyl-N-[(2S)-2-phenylpropyl]benzenesulfonamide] were, in that order, 1.4 and 1.1.
